Experimental data published in PMC5612656, “In vitro and in vivo effects of 2,4 diaminoquinazoline inhibitors of the decapping scavenger enzyme DcpS: Context-specific modulation of SMN transcript levels” (PLoS ONE, 2017).

Tested on: spinal cord transcriptome
Test: RNA-Seq of spinal cord tissue from 2B/- and 2B/+ mice
Format: in vivo, mouse
Conditions: 2B-Veh vs 2B-RG3039

## Nc1nc(N)c2c(OCC3CCN(Cc4c(Cl)cccc4Cl)CC3)cccc2n1 [RG3039]
  log2(fold-change) Gm10309: -1.704
  log2(fold-change) Gm11681: -1.051
  log2(fold-change) Gm13066: -1.415
  log2(fold-change) Gm16316: -0.9137
  log2(fold-change) Gm16958: -0.6452
  log2(fold-change) Gm21984: -0.8301
  log2(fold-change) Gm26645: 0.5748
  log2(fold-change) Gp2: 1.536
  log2(fold-change) Gpr50: 0.6598
  log2(fold-change) Gpx3: -0.9006
  log2(fold-change) Gsg2: 1
  log2(fold-change) Gstm1: -0.9261
  log2(fold-change) Gsx1: 1.082
  log2(fold-change) Hbegf: 0.4821
  log2(fold-change) Heph: -0.6747
  log2(fold-change) Hes5: 1.011
  log2(fold-change) Heyl: 0.7294
  log2(fold-change) Hif3a: -1.3266
  log2(fold-change) Hist1h1c: -0.9093
  log2(fold-change) Hist1h4h: -0.4829
  log2(fold-change) Hpgd: 1.149
  log2(fold-change) Hr: -1.031
  log2(fold-change) Hsf3: -1.087
  log2(fold-change) Iapp: -0.9349
  log2(fold-change) Id3: 0.7631
  log2(fold-change) Ier5: 0.6487
  log2(fold-change) Igf1: 0.4613
  log2(fold-change) Igsf1: 0.614
  log2(fold-change) Il12rb1: -1.3
  log2(fold-change) Itga6: 0.6885
  log2(fold-change) Itgb3: 0.5631
  log2(fold-change) Kcna5: -1.0224
  log2(fold-change) Kcne4: 0.8611
  log2(fold-change) Kdelr3: 0.5886
  log2(fold-change) Kdm4dl: -1.255
  log2(fold-change) Kif2c: 0.8365
  log2(fold-change) Klf15: -1.065
  log2(fold-change) Klhl30: 0.8074
  log2(fold-change) LRRC8A: -0.627
  log2(fold-change) Loxl1: 0.7115
  log2(fold-change) Lrrc8a: -0.9652
  log2(fold-change) Map3k6: -2.942
  log2(fold-change) Matn1: -1.5615
  log2(fold-change) Mcm6: 0.8445
  log2(fold-change) Mertk: -0.6404
  log2(fold-change) Mex3a: 0.9304
  log2(fold-change) Mgmt: -0.5604
  log2(fold-change) Mki67: 0.4816
  log2(fold-change) Mmp14: 0.9436
  log2(fold-change) Mrgprd: 1.807
  log2(fold-change) Mrpl41: -1.248
  log2(fold-change) Mycn: 0.9874
  log2(fold-change) Ncan: 0.7942
  log2(fold-change) Ncapg: 0.8309
  log2(fold-change) Neil3: 0.7885
  log2(fold-change) Nes: 0.5009
  log2(fold-change) Notum: 0.8827
  log2(fold-change) Nusap1: 0.4877
  log2(fold-change) Otoa: -1.049
  log2(fold-change) Pappa: 0.5579
  log2(fold-change) Pbk: 0.5785
  log2(fold-change) Pdk4: -1.799
  log2(fold-change) Per1: -0.8684
  log2(fold-change) Phactr3: -0.7376
  log2(fold-change) Phyhd1: -0.7387
  log2(fold-change) Pilrb2: -1.585
  log2(fold-change) Pirt: 0.7729
  log2(fold-change) Pmaip1: -0.9334
  log2(fold-change) Pmp2: 1.429
  log2(fold-change) Pnpla2: -1.095
  log2(fold-change) Pnpla7: -0.626
  log2(fold-change) Polr3e: -1.443
  log2(fold-change) Ppp1r1b: -1.252
  log2(fold-change) Prc1: 0.5813
  log2(fold-change) Prodh: -0.8352
  log2(fold-change) Pxmp2: -0.9238
  log2(fold-change) Pycr1: 1.135
  log2(fold-change) Rab11fip1: -0.4528
  log2(fold-change) Rasl2-9: -0.693
  log2(fold-change) Reg3b: 1.9386
  log2(fold-change) Rnase1: -0.7662
  log2(fold-change) Rorc: -0.6702
  log2(fold-change) Rsad2: 0.8406
  log2(fold-change) Scn10a: 1.7
  log2(fold-change) Scrg1: -0.8008
  log2(fold-change) Sdpr: -0.7672
  log2(fold-change) Sds: -2.356
  log2(fold-change) Serpinb5: -1.293
  log2(fold-change) Serpinh1: 0.3762
  log2(fold-change) Sgk1: -1.812
  log2(fold-change) Shroom1: -0.6614
  log2(fold-change) Slc13a3: 0.4446
  log2(fold-change) Slc13a5: 0.8562
